This is an account of results in publication PMC8963580, “Biophysical methods in early drug discovery” (ADMET & DMPK, 2019).

One test concerns the target InhA.NADH (Mycobacterium tuberculosis, UniProt P9WGR1). Kind of test: SPR profiling of DEL screening hits, in the presence of 100 μM NADH. The format is binding.
Another test concerns the target Apo InhA (Mycobacterium tuberculosis, UniProt P9WGR1). Kind of test: SPR profiling of DEL screening hits, compound injected alone. The format is binding.
The target of a further test is InhA.NAD+ (Mycobacterium tuberculosis, UniProt P9WGR1). Kind of test: SPR profiling of DEL screening hits, in the presence of 2 mM NAD+. The format is binding.
Chain of InhA.NAD+ (P9WGR1 whole entry, looked up, the tested form may be a part): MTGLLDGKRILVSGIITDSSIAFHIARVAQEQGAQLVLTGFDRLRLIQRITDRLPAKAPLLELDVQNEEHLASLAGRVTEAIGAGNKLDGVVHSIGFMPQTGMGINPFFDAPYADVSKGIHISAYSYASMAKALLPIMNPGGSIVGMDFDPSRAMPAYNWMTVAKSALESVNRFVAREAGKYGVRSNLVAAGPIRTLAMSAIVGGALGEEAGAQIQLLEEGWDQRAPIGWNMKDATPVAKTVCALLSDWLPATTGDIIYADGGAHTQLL
Test [1] concerns the target T1, NAD binding domain of PHGDH (Homo sapiens, UniProt O43175).
T1 sequence (O43175 93-298 limits assumed): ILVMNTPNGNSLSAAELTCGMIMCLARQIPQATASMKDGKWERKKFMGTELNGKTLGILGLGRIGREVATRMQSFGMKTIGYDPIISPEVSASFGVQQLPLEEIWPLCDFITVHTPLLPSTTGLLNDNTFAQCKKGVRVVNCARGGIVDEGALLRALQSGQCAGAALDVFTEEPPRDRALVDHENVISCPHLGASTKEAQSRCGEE
Kind of test: SPR titration, steady state fit.

Test [2] addresses T2, full length PHGDH (Homo sapiens, UniProt O43175).
T2 sequence (O43175 1-533): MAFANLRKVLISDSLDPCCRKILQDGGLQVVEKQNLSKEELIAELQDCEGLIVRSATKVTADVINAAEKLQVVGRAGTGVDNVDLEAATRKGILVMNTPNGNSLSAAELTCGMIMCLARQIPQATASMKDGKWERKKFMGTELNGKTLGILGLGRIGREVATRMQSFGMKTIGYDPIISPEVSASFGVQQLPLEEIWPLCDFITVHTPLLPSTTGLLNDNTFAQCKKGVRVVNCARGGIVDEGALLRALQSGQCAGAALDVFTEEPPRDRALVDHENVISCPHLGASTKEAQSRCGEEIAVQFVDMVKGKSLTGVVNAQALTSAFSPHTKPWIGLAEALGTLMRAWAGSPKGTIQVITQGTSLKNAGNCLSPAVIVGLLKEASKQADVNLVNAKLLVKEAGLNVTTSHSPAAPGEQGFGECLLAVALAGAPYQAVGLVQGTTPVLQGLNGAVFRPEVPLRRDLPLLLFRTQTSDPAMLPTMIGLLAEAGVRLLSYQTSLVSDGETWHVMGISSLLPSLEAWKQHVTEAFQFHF
As to the kind of experiment: SPR titration, steady state fit. Format: binding. The source says:
Considering this knowledge, a 1D NMR competition assay with NAD+ as the reference compound was developed. This screen employed the more physiologically relevant full length PHGDH protein, to provide continuity for affinity measurement during the subsequent analoguing phase. It is noteworthy that fragments and many of the synthesised analogues had no measurable activity in the human PHGDH protein NAD fluorescence intensity biochemical assay. Whilst the biophysical methods allowed a wide dynamic range of weak mM to sub μM affinities be determined, the biochemical assay could only be used to provide affinities that could drive SAR once those affinities were sub micromolar. In summary, a fragment crystal cocktail screen, supported with biophysical affinity measurements, provided the first known small molecule known nanomolar inhibitors of PHGDH and valuable tools for interrogating the biology of this target.
(b) SPR titration data for NADH binding to full length PHGDH, Kd = 0.4 ± 0.03 μM determined from a steady state fit, with the kinetic fit curve shown in the inset. […] No label is printed directly beside the Kd values; 'Spot 1' and 'Spot 2' are printed at the top of the plots.

Test [3] addresses T2, full length PHGDH. Kind of test: ITC titration. Format: binding. (ITC needs no label: the signal is the heat of the interaction.)
In test [4] the target is T3, 15N-labeled NAD binding domain of PHGDH (Homo sapiens, UniProt O43175).
T3 sequence (O43175 93-298 limits assumed): T1 sequence (O43175 93-298 limits assumed)
Kind of test: 2D NMR binding assay (1H15N-TROSY-HSQC chemical shift titration). Particulars: read-out: Kd (chemical shift change versus compound concentration). The source says:
The enzyme 3-phosphohydroxyglycerate dehydrogenase (PHGDH) utilises oxidised ninotinamide dinucleotide (NAD+) and catalyses the conversion of 3-phosphohydroxyglycerate to 3-phosphohydroxypyruvate in humans. The conversion of 3-phosphohydroxyglycerate to 3-phosphohydroxypyruvate is the first, and rate-limiting step, in synthesis of the amino acid serine. Studies have linked PHGDH to the in vivo tumourigenesis in aggressive breast tumours and functional genomics reveal that the serine synthesis pathway is essential in breast cancer. Thus, the druggability of the target was explored with small molecules. To this end a fragment screen of 384 fragments was undertaken using crystal cocktail soaking (mixtures of 4) against the NAD binding domain of PHGDH and 34 hits were identified. The binding affinities of these hits were determined in a 2D NMR binding assay using 15N-labeled NAD binding domain, Figure 6a. […] A simple analogue of an initial crystallography hit (compound 1), the 5-fluoroindole-2-carboxamide (compound 2) bound at a resolution of 1.95 Å in the adenine pocket of the NAD binding site (Figure 6b). The indole NH forms a water-bridged hydrogen bond network with Ser-211, and the 5-fluoro substituent fits nicely into a lipophilic cleft in the binding pocket. […]

A further test addresses T4, PHGDH (Homo sapiens, UniProt O43175).
T4 sequence (O43175 1-533): T2 sequence (O43175 1-533)
Kind of test: Affinity for PHGDH during fragment optimisation (method not given). The format is binding. The source says: The enzyme 3-phosphohydroxyglycerate dehydrogenase (PHGDH) utilises oxidised ninotinamide dinucleotide (NAD+) and catalyses the conversion of 3-phosphohydroxyglycerate to 3-phosphohydroxypyruvate in humans. The conversion of 3-phosphohydroxyglycerate to 3-phosphohydroxypyruvate is the first, and rate-limiting step, in synthesis of the amino acid serine. Studies have linked PHGDH to the in vivo tumourigenesis in aggressive breast tumours and functional genomics reveal that the serine synthesis pathway is essential in breast cancer. Thus, the druggability of the target was explored with small molecules. […] The binding affinities of these hits were determined in a 2D NMR binding assay using 15N-labeled NAD binding domain, Figure 6a. […]
Considering this knowledge, a 1D NMR competition assay with NAD+ as the reference compound was developed. […] It is noteworthy that fragments and many of the synthesised analogues had no measurable activity in the human PHGDH protein NAD fluorescence intensity biochemical assay. Whilst the biophysical methods allowed a wide dynamic range of weak mM to sub μM affinities be determined, the biochemical assay could only be used to provide affinities that could drive SAR once those affinities were sub micromolar. […]

Structures are written as SMILES.

Chain of InhA.NADH (P9WGR1 whole entry, looked up): as the sequence (P9WGR1 whole entry, looked up, the tested form may be a part) above
Chain of Apo InhA (P9WGR1 whole entry, looked up): as the sequence (P9WGR1 whole entry, looked up, the tested form may be a part) above

As for `Cc1c(CC(=O)NC2CCC(CC(=O)N3CCN(CC(=O)CN)C(=O)C3Cc3ccccc3)CC2)sc2ccccc12` (centres unmarked) [Compound 6], the values for the Kd on InhA.NADH, at Apo InhA and on InhA.NAD+ were 0.3 ± 0.2 µM, greater than 100 µM and 13.4 ± 4.3 µM, respectively.

Take `CNC(=O)C1CC(NC(=O)C(NC(=O)c2ccc(Cn3cccn3)cc2)[C@@H](C)OC(C)(C)C)CN1C(=O)c1ccccc1` (some centres unmarked) [Compound 10]: the Kd at InhA.NADH is 0.06 ± 0.03 µM; at Apo InhA, greater than 100 µM; on InhA.NAD+, 49 ± 2.9 µM.

Turning to `CNC(=O)CN(C(=O)Cc1ccc(-n2cccn2)cc1)C1CCN(c2ccccn2)CC1` [Compound 9], the values for the Kd at InhA.NADH, at Apo InhA and at InhA.NAD+ were 36.8 ± 3.3 µM, greater than 100 µM and greater than 100 µM, respectively.

Turning to `NC(=O)C1=CN([C@@H]2O[C@H](COP(=O)(O)OP(=O)(O)OC[C@H]3O[C@@H](n4cnc5c(N)ncnc54)[C@H](O)[C@@H]3O)[C@@H](O)[C@H]2O)C=CC1` [NADH], the Kd in test [1] turned out to be 6.7 ± 0.5 µM; at full length PHGDH [2] (SPR steady state fit, full length PHGDH) it was 0.4 ± 0.03 µM; at full length PHGDH [3], 0.33 ± 0.08 µM. Also, the “fold tighter binding to the full-length protein than to the NAD binding domain” value on full length PHGDH [2] (combination of ITC and SPR measurements) is given as “approximately 20 fold”. Further, the “N (stoichiometry)” value on full length PHGDH [3] was determined as 0.78 ± 0.01.

With `CNC(=O)c1cnc(NC2CCN(c3ccccn3)CC2)c(NCc2ccc(F)c(Oc3ccccc3)c2)c1` [Compound 8], the Kd was 0.3 ± 0.1 µM on InhA.NADH, greater than 100 µM on Apo InhA and greater than 100 µM on InhA.NAD+.

Regarding `NC(=O)c1cc2cc(F)ccc2[nH]1` [Compound 2, 5-fluoroindole-2-carboxamide], the Kd in test [4] is 980 ± 60 µM.

On to `CNC(=O)CN(Cc1ccc(C)cc1)C(=O)C[C@H]1CC[C@H](CC(=O)c2nnn(Cc3ccccc3)c2C)CC1` [Compound 7], for which the figures for the Kd at InhA.NADH, at Apo InhA and on InhA.NAD+ were 0.09 ± 0.06 µM, greater than 100 µM and 46.7 ± 11.6 µM, respectively.

As to `CNC(=O)C1CCCN1C(=O)CC1CCC(NC(=O)C2CC(c3ccccc3)CN2)CC1` (centres unmarked) [Compound 12], the results for the Kd at InhA.NADH, on Apo InhA and on InhA.NAD+ were 6.3 ± 2.6 µM, greater than 100 µM and greater than 100 µM, respectively.

Consider `COc1cc2[nH]c(C(=O)N[C@H](CO)c3ccccc3)cc2cc1Cl` [Compound 4], for which the affinity result on PHGDH (method not stated) is “single digit”.

Turning to `CCCc1cc(C(=O)N2CCC(C(=O)NC(CC(=O)NC)c3cccc(C(F)(F)F)c3)(c3ccc(Br)cc3)CC2)n(C)n1` (centres unmarked) [Compound 11], the Kd on InhA.NADH turned out to be 5 ± 1.2 µM; on Apo InhA, 12.4 ± 1.4 µM; on InhA.NAD+, 0.3 ± 0.1 µM.

As to `O=C(O)c1ccc([C@@H](CO)NC(=O)c2cc3cc(Cl)ccc3[nH]2)cc1` [Compound 5], the “fold improvement in affinity” value on PHGDH (relative to compound 4) was found to be 10 fold.
